Measured values published in patent US20190216956A1, “COMPOSITIONS FOR RADIOTHERAPY AND USES THEREOF” (priority 2016, published 2019).

How the values were obtained:
[1] = system: NCI-28H cells; experiment: Cytotoxicity assay (MTS) of NCI-28H cells: doxorubicin, cisplatin, paclitaxel, talc, talc bound to drugs (Example 21); assay type: cell-based; details: NCI-28H cells; for Average readings: cells + drug: absorbance 490 nm
Protocol: Read absorbance (MTS assay) and calculate cells survival rate. Compare survival rate between each formulation.
1. Set up 3 cytotoxicity plates for Day 2 experiment: trypsinize NCI-28H cells (T-75 flask, passage 12): • Remove old medium, wash cells with 7 ml DPBS, remove DPBS, add 2 ml trypsin, incubate plates for 1-2′, when cells detached add 6 ml fresh medium, mix cells and medium. • Count cells under the microscope using the glass slide. […] If we need 200 wells, in each well will be 5,000 cells in 0.1 ml; so total we need 1,000,000 cells in 20 ml. […] In 50 ml Falcon tube, combine 16.6 ml fresh medium and 3.4 ml cells. Gently mix.
3. […] Final solution is 500 μL of 20 μM.
(§1) 1. Centrifuge tubes at 3200 rpm for 3 min. Take out supernatant.
6. Check the plate and start incubation at 37° C./5% CO2
3. Wash cells 1×300 μL media, remove final wash.

[2] = system: NCI-2052H cells; experiment: Cytotoxicity assay (MTS) of NCI-2052H cells: bleomycin, mitomycin, doxorubicin, paclitaxel, talc, talc bound to drugs (Example 23); assay type: cell-based; details: for Average reading: cells + drug, paclitaxel / Average reading: cells + drug, mitomycin: absorbance 490 nm
[3] = system: NCI-28H cells; experiment: Cytotoxicity assay (MTS) of NCI-28H cells: carboplatin, mitomycin, gemcitabine, talc, talc bound to drugs (Example 22); details: NCI-28H cells; for Average absorbance readings: cells + drug, mitomycin: 490 nm
Protocol: Read absorbance (MTS assay) and calculate cells survive rate. Compare survival rate
1. Set up 3 cytotoxicity plates for tomorrow experiment: trypsinize NCI-28H cells (T-75 flask, passage 12): • Remove old medium, wash cells with 7 ml DPBS, remove DPBS, add 2 ml trypsin, incubate plates for 1-2′, when cells detached add 6 ml fresh medium, mix cells and medium. • Count cells under the microscope using the glass slide. […] If we need 200 wells, in each well will be 5,000 cells in 0.1 ml; so total we need 1,000,000 cells in 20 ml.
2. […] Final solution is 500 μL of 500 μM carboplatin.
4. […] Final solution is 500 μL of 200 μM Gemcitabine.
as §1
3. Add 100 μL of each 8 preparations of diluted carboplatin (step 1 and 2) to the proper wells according to a plate layout.
4. Add 100 μL of each 8 preparations of diluted Gemcitabine (step 1, 2, 3) to the proper wells according to a plate layout.
6. Check the plate and start incubation at 37° C./5% CO2.
3. Wash all cells 1×300 μL DPBS, remove final wash.

[4] = system: NCI-2052H cells; experiment: Repeated cytotoxicity experiment (MTS): NCI-2052H cells, mitomycin, talc, talc bound to mitomycin (Example 24); assay type: cell-based; details: for Average reading: drug + cells: absorbance 490 nm
Protocol: Compare survival rate of cells.
1. […] Protocol how to do that see in previous cytotoxicity experiment.
as §1
1. Incubate plate for 72 hrs at 37° C., 5% CO2.
3. Wash all wells 1×300 μL DPBS, remove final wash.

## CC(=O)O[C@H]1C(=O)[C@@]2(C)[C@H]([C@H](OC(=O)c3ccccc3)[C@]3(O)C[C@H](OC(=O)[C@H](O)[C@@H](NC(=O)c4ccccc4)c4ccccc4)C(C)=C1C3(C)C)[C@]1(OC(C)=O)CO[C@@H]1C[C@@H]2O [Paclitaxel]
[1]; Paclitaxel 0.13 nM
  % survival (cells + drug): 102.50%
  Average readings: cells + drug: 1.56
[1]; Paclitaxel 0.68 nM
  % survival (cells + drug): 86.98%
  Average readings: cells + drug: 1.33
[1]; Paclitaxel 3.5 nM
  % survival (cells + drug): 89.85%
  Average readings: cells + drug: 1.37
[1]; Paclitaxel 16 nM
  % survival (cells + drug): 84.47%
  Average readings: cells + drug: 1.29
[1]; Paclitaxel 80 nM
  % survival (cells + drug): 71.81%
  Average readings: cells + drug: 1.10
[1]; Paclitaxel 400 nM
  % survival (cells + drug): 66.39%
[1]; Paclitaxel 2000 nM
  % survival (cells + drug): 62.43%
[1]; Paclitaxel 10,000 nM
  % survival (cells + drug): 60.71%
[2]; Paclitaxel 0.256 nM
  Average reading: cells + drug, paclitaxel: 1.4273
[2]; Paclitaxel 6.4 nM
  Average reading: cells + drug, paclitaxel: 1.54
[2]; Paclitaxel 32 nM
  Average reading: cells + drug, paclitaxel: 0.5818
[2]; Paclitaxel 160 nM
  Average reading: cells + drug, paclitaxel: 0.4361
[2]; Paclitaxel 800 nM
  Average reading: cells + drug, paclitaxel: 0.4326
[2]; Paclitaxel 4000 nM
  Average reading: cells + drug, paclitaxel: 0.553
[2]; Paclitaxel 20,000 nM
  Average reading: cells + drug, paclitaxel: 0.1647
[2]; paclitaxel 0.256 (nM per Table 97)
  % survival from untreated cells: 83.84%
[2]; paclitaxel 1.28 (nM per Table 97)
  % survival from untreated cells: 93.24%
[2]; paclitaxel 6.4 (nM per Table 97)
  % survival from untreated cells: 90.43%
[2]; paclitaxel 32 (nM per Table 97)
  % survival from untreated cells: 34.17%
[2]; paclitaxel 160 (nM per Table 97)
  % survival from untreated cells: 25.61%
[2]; paclitaxel 800 (nM per Table 97)
  % survival from untreated cells: 25.41%
[2]; paclitaxel 4000 (nM per Table 97)
  % survival from untreated cells: 32.48%
[2]; paclitaxel 20,000 (nM per Table 97)
  % survival from untreated cells: 9.67%

## CO[C@@]12[C@H](COC(N)=O)C3=C(C(=O)C(C)=C(N)C3=O)N1C[C@@H]1N[C@@H]12 [mitomycin]
[3]; mitomycin 0.0026 μM
  Average absorbance readings: cells + drug, mitomycin: 2.032
  % survival cells after exposure to drug for 72 hrs (cells + drug only), mitomycin: 106.12%
[3]; mitomycin 0.013 μM
  Average absorbance readings: cells + drug, mitomycin: 1.965
  % survival cells after exposure to drug for 72 hrs (cells + drug only), mitomycin: 102.65%
[3]; mitomycin 0.064 μM
  Average absorbance readings: cells + drug, mitomycin: 1.8766
  % survival cells after exposure to drug for 72 hrs (cells + drug only), mitomycin: 98.03%
[3]; mitomycin 8 μM
  Average absorbance readings: cells + drug, mitomycin: 0.3451
  % survival cells after exposure to drug for 72 hrs (cells + drug only), mitomycin: 18.03%
[3]; mitomycin 40 μM
  Average absorbance readings: cells + drug, mitomycin: 0.52
  % survival cells after exposure to drug for 72 hrs (cells + drug only), mitomycin: 27.16%
[3]; mitomycin 200 μM
  Average absorbance readings: cells + drug, mitomycin: 0.2464
  % survival cells after exposure to drug for 72 hrs (cells + drug only), mitomycin: 12.87%
[2]; mitomycin 0.013 μM
  Average reading: cells + drug, mitomycin: 1.284
[2]; mitomycin 0.064 μM
  Average reading: cells + drug, mitomycin: 1.199
[2]; mitomycin 8 μM
  Average reading: cells + drug, mitomycin: 0.4142
[2]; mitomycin 40 μM
  Average reading: cells + drug, mitomycin: 0.2305
[2]; mitomycin 200 μM
  Average reading: cells + drug, mitomycin: 0.2098
[2]; mitomycin .0026 μM
  Average reading: cells + drug, mitomycin: 1.424
[4]; Mitomycin 0.013 uM
  Average reading: drug + cells: 0.7907
[4]; Mitomycin 0.064 uM
  Average reading: drug + cells: 0.8267
[4]; Mitomycin 8 uM
  Average reading: drug + cells: 0.4217
[4]; Mitomycin 40 uM
  Average reading: drug + cells: 0.2257
[4]; Mitomycin 200 uM
  Average reading: drug + cells: 0.2243
[4]; Mitomycin .0026 uM
  Average reading: drug + cells: 0.8637
[4]; mitomycin 0.0026 (uM per Table 103)
  % survival from untreated cells: 78.87%
[4]; mitomycin 0.013 (uM per Table 103)
  % survival from untreated cells: 72.21%
[4]; mitomycin 0.064 (uM per Table 103)
  % survival from untreated cells: 75.49%
[4]; mitomycin 0.32 (uM per Table 103)
  % survival from untreated cells: 75.10%
[4]; mitomycin 1.6 (uM per Table 103)
  % survival from untreated cells: 61.83%
[4]; mitomycin 8 (uM per Table 103)
  % survival from untreated cells: 38.51%
[4]; mitomycin 40 (uM per Table 103)
  % survival from untreated cells: 20.61%
[4]; mitomycin 200 (uM per Table 103)
  % survival from untreated cells: 20.49%
